Test results: paper PMC3871271 (FEBS Open Bio, 2013)
Entries after “also recorded” stand apart in the source; their conditions may differ. Where two headings read alike, the source gives them in different places. Each block holds one molecule with its values, some of them ahead of it.

What was measured:
C-SdCen F109L-E144A = assay: ITC binding of target peptides to C-SdCen F109L-E144A; set-up: species or system Scherffelia dubia; conditions: for effect of F109L-E144A mutation on binding (in words): F109L-E144A vs WT and single mutants; for TΔS / ΔG: F109L-E144A, pH 7.5; for TΔS: from ΔG = ΔH − TΔS; for ΔG: ΔG = −RTln(1/Ka); for ΔΔH: difference in binding enthalpy SdCen wt vs F109L-E144A; for ΔΔH / ΔΔG: EDTA 2 mM; for ΔΔG: difference in free energy SdCen wt vs F109L-E144A
[1] = tested on: C-SdCen WT (C-terminal domain M93-F168 of SdCen); assay: ITC binding of target peptides to wild-type C-SdCen; set-up: species or system Scherffelia dubia; conditions: for TΔS / ΔG / Ka / ΔH: pH 7.5; for TΔS: from ΔG = ΔH − TΔS; for ΔG: ΔG = −RTln(1/Ka); for effect of calcium on binding (in words): presence vs absence of calcium; for Ka / ΔH: MOPS 50 mM, NaCl 100 mM, SD of fit in parenthesis
C-SdCen F109L = assay: ITC binding of target peptides to C-SdCen F109L; set-up: species or system Scherffelia dubia; conditions: for effect of F109L mutation on binding (in words) / factor of increase in change in enthalpy (ΔH) / factor of reduction of binding constant by F109L / factor of decrease in Ka by F109L: F109L vs WT; for factor of increase in change in enthalpy (ΔH) / factor of reduction of binding constant by F109L: EDTA; for factor of decrease in Ka by F109L: temperature not stated; for TΔS / ΔG: F109L, pH 7.5; for TΔS: from ΔG = ΔH − TΔS; for ΔG: ΔG = −RTln(1/Ka); for ΔΔH: difference in binding enthalpy SdCen wt vs F109L; for ΔΔH / ΔΔG: EDTA 2 mM; for ΔΔG: difference in free energy SdCen wt vs F109L
C-SdCen E144A = assay: ITC binding of target peptides to C-SdCen E144A; set-up: species or system Scherffelia dubia; conditions: for TΔS / ΔG: pH 7.5; for TΔS: from ΔG = ΔH − TΔS; for ΔG: ΔG = −RTln(1/Ka); for ΔΔH: difference in binding enthalpy SdCen wt vs E144A; for ΔΔH / ΔΔG: EDTA 2 mM; for ΔΔG: difference in free energy SdCen wt vs E144A; for factor of decrease in affinity by E144A: absence of calcium
[2] = molecular target: T1, C-terminal domain of Scherffelia dubia centrin, wild type (Scherffelia dubia, UniProt Q06827 93-168); assay: ITC
T1 sequence (looked up): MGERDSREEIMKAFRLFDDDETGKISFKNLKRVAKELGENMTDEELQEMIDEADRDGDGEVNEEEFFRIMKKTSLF

[3] = molecular target: T1, C-terminal domain of Scherffelia dubia …; assay: ITC; remark: listed apart in the source
[4] = WT, EDTA, 30 °C to 37 °C, becoming more negative
[5] = E144A, 30 °C, no Ca2+ (EDTA 2 mM)
[6] = E144A, 37 °C, no Ca2+ (EDTA 2 mM)

TΔS (C-SdCen F109L-E144A; 30 °C, no Ca2+ (EDTA 2 mM)): -16.33 kcal/mol | ΔG (C-SdCen F109L-E144A; 30 °C, no Ca2+ (EDTA 2 mM)): -8.07 kcal/mol | TΔS (C-SdCen F109L-E144A; 37 °C, no Ca2+ (EDTA 2 mM)): -18.24 kcal/mol | ΔΔH (C-SdCen F109L-E144A; 30 °C): -7.1 kcal/mol | ΔΔH (C-SdCen F109L-E144A; 37 °C): -10.66 kcal/mol | ΔΔG (C-SdCen F109L-E144A; 30 °C): -1.19 kcal/mol | ΔΔG (C-SdCen F109L-E144A; 37 °C): -1.12 kcal/mol | effect of temperature increase (in words) ([1]; WT, 30 °C to 37 °C, XPC vs Sfi1): a more pronounced effect on Sfi1 | TΔS ([1]; WT, 30 °C, no Ca2+ (EDTA 2 mM)): -22.24 kcal/mol | ΔG ([1]; WT, 30 °C, no Ca2+ (EDTA 2 mM)): -9.26 kcal/mol | TΔS ([1]; WT, 37 °C, no Ca2+ (EDTA 2 mM)): -27.78 kcal/mol | factor of decrease in binding on temperature increase ([1]; WT, EDTA, 30 °C to 37 °C): 4 | factor of decrease in TΔS on temperature increase [1, 4]: 1.3 | factor of decrease in ΔH on temperature increase [1, 4]: 1.2 | factor of increase in change in enthalpy (ΔH) (C-SdCen F109L; 30 °C): 1.4 | factor of reduction of binding constant by F109L (C-SdCen F109L; 30 °C): 6 | factor of increase in change in enthalpy (ΔH) (C-SdCen F109L; 37 °C): 1.4 | factor of reduction of binding constant by F109L (C-SdCen F109L; 37 °C): 6 | factor of decrease in Ka by F109L (C-SdCen F109L): 6 | TΔS (C-SdCen F109L; 30 °C, no Ca2+ (EDTA 2 mM)): -14.96 kcal/mol | ΔG (C-SdCen F109L; 30 °C, no Ca2+ (EDTA 2 mM)): -8.24 kcal/mol | TΔS (C-SdCen F109L; 37 °C, no Ca2+ (EDTA 2 mM)): -22.3 kcal/mol | ΔG (C-SdCen F109L; 37 °C, no Ca2+ (EDTA 2 mM)): -8.1 kcal/mol | ΔΔH (C-SdCen F109L; 30 °C): -8.3 kcal/mol | ΔΔH (C-SdCen F109L; 37 °C): -6.69 kcal/mol | ΔΔG (C-SdCen F109L; 30 °C): -1.02 kcal/mol | ΔΔG (C-SdCen F109L; 37 °C): -1.21 kcal/mol | effect of E144A mutation on binding (in words) (C-SdCen E144A; E144A vs WT, listed as Sfi1): had no effect on Sfi1 binding | TΔS (C-SdCen E144A; [5]): -21.06 kcal/mol | ΔG (C-SdCen E144A; [5]): -9.25 kcal/mol | TΔS (C-SdCen E144A; [6]): -26.88 kcal/mol | ΔΔH (C-SdCen E144A; 30 °C): -1.19 kcal/mol | ΔΔH (C-SdCen E144A; 37 °C): -0.87 kcal/mol | ΔΔG (C-SdCen E144A; 30 °C): -0.01 kcal/mol
Molecule: 677-SQHNRQLLRGALRRWK-692 [R18-Sfi1]
effect of F109L-E144A mutation on binding (in words) (C-SdCen F109L-E144A): exhibited the same behavior as wild-type SdCen at both temperatures | effect of calcium on binding (in words) ([1]; WT): the presence of calcium enhanced the binding | effect of calcium on binding (in words) ([1]; WT, listed as Sfi1): Calcium was not required for binding although its presence enhanced the binding | effect of F109L mutation on binding (in words) (C-SdCen F109L): reduced the binding; also recorded: decreased the binding | effect of E144A mutation on binding (in words) (C-SdCen E144A; E144A vs WT): no effect on the binding of C-SdCen to R18-Sfi1

TΔS (C-SdCen F109L-E144A; 30 °C, Ca2+ 2 mM): -3.69 kcal/mol | ΔG (C-SdCen F109L-E144A; 30 °C, Ca2+ 2 mM): -10.42 kcal/mol | ΔG (C-SdCen F109L-E144A; 30 °C, no Ca2+ (EDTA 2 mM)): -7.81 kcal/mol | TΔS (C-SdCen F109L-E144A; 37 °C, Ca2+ 2 mM): -6.60 kcal/mol | ΔG (C-SdCen F109L-E144A; 37 °C, Ca2+ 2 mM): -10.59 kcal/mol | TΔS (C-SdCen F109L-E144A; 37 °C, no Ca2+ (EDTA 2 mM)): -13.21 kcal/mol | ΔΔH (C-SdCen F109L-E144A; 30 °C): -11.6 kcal/mol | ΔΔH (C-SdCen F109L-E144A; 37 °C): -19.4 kcal/mol | ΔΔG (C-SdCen F109L-E144A; 30 °C): -2.6 kcal/mol | ΔΔG (C-SdCen F109L-E144A; 37 °C): -2.67 kcal/mol | Ka ([1]; WT, 30 °C, Ca2+ 2 mM): 59.4(9.10) 10^6 M^−1 | ΔH ([1]; WT, 30 °C, Ca2+ 2 mM): −23.4(0.16) kcal/mol | TΔS ([1]; WT, 30 °C, Ca2+ 2 mM): -12.63 kcal/mol | ΔG ([1]; WT, 30 °C, Ca2+ 2 mM): -10.77 kcal/mol | factor of higher affinity for P17-XPC than for R18-Sfi1 ([1]; WT, 30 °C, EDTA): 7 | ΔG ([1]; WT, 30 °C, no Ca2+ (EDTA 2 mM)): -10.41 kcal/mol | Ka ([1]; WT, 37 °C, Ca2+ 2 mM): 73.2(7.0) 10^6 M^−1 | ΔH ([1]; WT, 37 °C, Ca2+ 2 mM): −23.36(0.08) kcal/mol | TΔS ([1]; WT, 37 °C, Ca2+ 2 mM): -12.18 kcal/mol | ΔG ([1]; WT, 37 °C, Ca2+ 2 mM): -11.18 kcal/mol | factor of higher affinity for P17-XPC than for R18-Sfi1 ([1]; WT, 37 °C, EDTA): 10 | TΔS ([1]; WT, 37 °C, no Ca2+ (EDTA 2 mM)): -29.94 kcal/mol | difference in ΔH between P17-XPC and R18-Sfi1 ([1]; WT, EDTA, 30 °C and 37 °C): 3 kcal/mol | factor of decrease in binding on temperature increase ([1]; WT, EDTA, 30 °C to 37 °C): 3 | factor of decrease in ΔH on temperature increase [1, 4]: 1.2 | factor of increase in change in enthalpy (ΔH) (C-SdCen F109L; 30 °C): 1.7 | factor of reduction of binding constant by F109L (C-SdCen F109L; 30 °C): 15 | factor of increase in change in enthalpy (ΔH) (C-SdCen F109L; 37 °C): 1.4 | factor of reduction of binding constant by F109L (C-SdCen F109L; 37 °C): 15 | factor of decrease in Ka by F109L (C-SdCen F109L): 15 | TΔS (C-SdCen F109L; 30 °C, Ca2+ 2 mM): -4.78 kcal/mol | ΔG (C-SdCen F109L; 30 °C, Ca2+ 2 mM): -10.85 kcal/mol | TΔS (C-SdCen F109L; 30 °C, no Ca2+ (EDTA 2 mM)): -11.88 kcal/mol | ΔG (C-SdCen F109L; 30 °C, no Ca2+ (EDTA 2 mM)): -8.72 kcal/mol | TΔS (C-SdCen F109L; 37 °C, Ca2+ 2 mM): -6.20 kcal/mol | ΔG (C-SdCen F109L; 37 °C, Ca2+ 2 mM): -10.77 kcal/mol | ΔΔH (C-SdCen F109L; 30 °C): -13.2 kcal/mol | ΔΔH (C-SdCen F109L; 37 °C): -17.44 kcal/mol | ΔΔG (C-SdCen F109L; 30 °C): -1.69 kcal/mol | ΔΔG (C-SdCen F109L; 37 °C): -2.03 kcal/mol | factor of decrease in affinity by E144A (C-SdCen E144A; E144A vs WT, 30 °C): 3 | factor of decrease in affinity by E144A (C-SdCen E144A; E144A vs WT, 37 °C): 4 | ΔH compared to wild type (in words) (C-SdCen E144A; E144A vs WT, EDTA): the same as for the wild type | effect of E144A mutation on binding (in words) (C-SdCen E144A; E144A vs WT, listed as XPC): reduced the binding to XPC | TΔS (C-SdCen E144A; E144A, 30 °C, Ca2+ 2 mM): -9.36 kcal/mol | ΔG (C-SdCen E144A; E144A, 30 °C, Ca2+ 2 mM): -11.08 kcal/mol | TΔS (C-SdCen E144A; [5]): -19.78 kcal/mol | ΔG (C-SdCen E144A; [5]): -9.72 kcal/mol | TΔS (C-SdCen E144A; E144A, 37 °C, Ca2+ 2 mM): -13.76 kcal/mol | ΔG (C-SdCen E144A; E144A, 37 °C, Ca2+ 2 mM): -11.41 kcal/mol | TΔS (C-SdCen E144A; [6]): -28.66 kcal/mol | ΔΔH (C-SdCen E144A; 30 °C): -4.3 kcal/mol | ΔΔH (C-SdCen E144A; 37 °C): -2.2 kcal/mol | ΔΔG (C-SdCen E144A; 30 °C): -0.69 kcal/mol
Molecule: 846-NWKLLAKGLLIRERLKR-863 [P17-XPC]
effect of F109L-E144A mutation on binding (in words) (C-SdCen F109L-E144A; listed as XPC): enhanced the negative effect of the two single mutations on XPC binding; also recorded: further reduced XPC binding | effect of calcium on binding (in words) ([1]; WT): the presence of calcium enhanced the binding | effect of calcium on binding (in words) ([1]; WT, listed as XPC): Calcium was not required for binding although its presence enhanced the binding; also recorded: addition of calcium enhanced the affinity | affinity comparison XPC vs Sfi1 (in words) ([1]; centrin, ITC, present and previous work): better for XPC than for other targets such as Sfi1 | effect of F109L mutation on binding (in words) (C-SdCen F109L; listed as XPC): reduced the binding; also recorded: decreased the binding | effect of calcium on affinity (in words) (C-SdCen E144A; E144A, presence vs absence of calcium): addition of calcium enhanced the affinity

Ka [2]: 4.5e+06 M⁻¹ | dH [2]: -31.5 kcal/mol | Ka [3]: 1.23e+06 M⁻¹ | dH [3]: -37.1 kcal/mol
B1: R18-HsSfi1 peptide (peptide)
peptide: Ac-SQHNRQLLRGALRRWK-NH2
